Reference: ChEMBL document CHEMBL1145308 (Bioorg Med Chem Lett, 2006)

Biological target: T1, Sodium- and chloride-dependent glycine transporter 1 (Homo sapiens, UniProt P48067)
T1 sequence (P48067 whole entry): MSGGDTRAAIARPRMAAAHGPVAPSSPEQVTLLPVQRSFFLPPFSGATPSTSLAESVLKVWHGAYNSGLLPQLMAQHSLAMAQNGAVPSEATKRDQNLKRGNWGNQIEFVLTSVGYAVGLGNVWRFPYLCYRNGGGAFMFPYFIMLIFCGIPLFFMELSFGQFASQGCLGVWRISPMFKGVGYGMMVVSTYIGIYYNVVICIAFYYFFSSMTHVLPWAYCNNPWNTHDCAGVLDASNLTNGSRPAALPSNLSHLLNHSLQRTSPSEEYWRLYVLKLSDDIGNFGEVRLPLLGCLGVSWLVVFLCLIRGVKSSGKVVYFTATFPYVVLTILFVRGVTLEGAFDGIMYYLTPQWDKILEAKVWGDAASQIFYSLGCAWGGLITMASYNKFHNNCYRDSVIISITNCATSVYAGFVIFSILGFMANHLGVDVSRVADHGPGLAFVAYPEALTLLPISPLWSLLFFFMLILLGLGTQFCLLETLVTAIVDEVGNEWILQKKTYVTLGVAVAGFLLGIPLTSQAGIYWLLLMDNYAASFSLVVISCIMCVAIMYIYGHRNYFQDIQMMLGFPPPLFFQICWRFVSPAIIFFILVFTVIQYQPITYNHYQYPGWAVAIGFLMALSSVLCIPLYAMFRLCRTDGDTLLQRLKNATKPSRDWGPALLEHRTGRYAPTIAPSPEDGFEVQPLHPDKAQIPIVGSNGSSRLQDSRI
Test: Inhibition of [3H]glycine uptake at GlyT1

SMILES | EC50 [nM]
O=C1NCC(c2ccc(F)cc2)C12CCN(C1(c3ccc(F)cc3)CCC1)CC2 (stereo unspecified) | > 30000
O=C1NCC(c2ccc(C(F)(F)F)cc2)C12CCN(C1(c3ccc(F)cc3)CCCCC1)CC2 (racemic) | 433
O=C1NCC(c2ccc(F)cc2)C12CCN(C1(C3CC3)CCCCC1)CC2 (racemic) | > 30000
CC(C)C1(N2CCC3(CC2)C(=O)NCC3c2ccc(F)cc2)CCCCC1 (racemic) | 787
N#Cc1cccc(C2(N3CCC4(CC3)C(=O)NCC4c3ccc(F)cc3)CCCCC2)c1 (racemic) | > 30000
Cc1ccc(C2CNC(=O)C23CCN(C2(c4ccc(F)cc4)CCCCC2)CC3)cc1 (racemic) | 73
O=C1NCC(c2ccccc2)C12CCN(C1(C3CCCC3)CCCCC1)CC2 (racemic) | 6290
O=C1NCC(c2ccccc2)C12CCN(C1(C3CC3)CCCCC1)CC2 (racemic) | > 30000
CC(C)C1(N2CCC3(CC2)C(=O)NCC3c2ccccc2)CCCCC1 (racemic) | 970
CC(C)=CC1(N2CCC3(CC2)C(=O)NCC3c2ccccc2)CCCCC1 (racemic) | 979
Cc1ccc(C2CNC(=O)C23CCN(C2(c4ccccc4)CCCCC2)CC3)cc1 (racemic) | 139
CCCC1CNC(=O)C12CCN(C1(c3cccs3)CCCCC1)CC2 (racemic) | 229
O=C1NCC(c2ccccc2)C12CCN(C1(c3cccs3)CCCCC1)CC2 (racemic) | 147
O=C1NCC(c2ccccc2)C12CCN(C1(c3ccc(OC(F)(F)F)cc3)CCCCC1)CC2 (racemic) | 4560
O=C1NCC(c2ccccc2)C12CCN(C1(c3ccsc3)CCCCC1)CC2 (racemic) | 682
CCCC1CNC(=O)C12CCN(C1(c3ccc(C)s3)CCCCC1)CC2 (racemic) | 113

SMILES | EC50 [nM]
O=C1NCC(c2ccccc2)C12CCN(C1(C3CCCCC3)CCCCC1)CC2 (racemic) | 15200
CCC1(N2CCC3(CC2)C(=O)NCC3c2ccc(F)cc2)CCCCC1 (racemic) | 1470
Cc1cccc(C2(N3CCC4(CC3)C(=O)NCC4c3ccc(F)cc3)CCCCC2)c1 (single isomer, unassigned; diastereomer 1) | 4000
O=C1NCC(c2ccccc2)C12CCN(C1(c3ccccc3)CCOCC1)CC2 (single isomer, unassigned; diastereomer 1) | 3660
COc1cccc(C2(N3CCC4(CC3)C(=O)NCC4c3ccccc3)CCCCC2)c1 (single isomer, unassigned; diastereomer 1) | 5610
N#Cc1ccc(C2(N3CCC4(CC3)C(=O)NCC4c3ccccc3)CCCCC2)cc1 (single isomer, unassigned; diastereomer 1) | > 30000
O=C1NCC(c2ccccc2)C12CCN(C1(c3ccc(C(F)(F)F)cc3)CCCCC1)CC2 (single isomer, unassigned; diastereomer 1) | 1210
O=C1NCC(c2ccc(F)cc2)C12CCN(C1(c3ccsc3)CCCCC1)CC2 (single isomer, unassigned; diastereomer 1) | 213
Cc1ccc(C2(N3CCC4(CC3)C(=O)NCC4c3ccc(F)cc3)CCCCC2)cc1 (single isomer, unassigned; diastereomer 1) | 1470
COc1cccc(C2(N3CCC4(CC3)C(=O)NCC4c3ccccc3)CCCCC2)c1 (single isomer, unassigned; diastereomer 2) | 26200
O=C1NCC(c2ccc(F)cc2)C12CCN(C1(c3cccc(OC(F)(F)F)c3)CCCCC1)CC2 (single isomer, unassigned; diastereomer 2) | 21500
Cc1ccc(C2(N3CCC4(CC3)C(=O)NCC4c3ccc(F)cc3)CCCCC2)cc1 (single isomer, unassigned; diastereomer 2) | 419
O=C1NCC(c2ccccc2)C12CCN(C1(c3ccc(C(F)(F)F)cc3)CCCCC1)CC2 (single isomer, unassigned; diastereomer 2) | 6970
O=C1NCC(c2ccccc2)C12CCN(C1(c3ccccc3)CCOCC1)CC2 (single isomer, unassigned; diastereomer 4) | 525
N#Cc1ccc(C2(N3CCC4(CC3)C(=O)NCC4c3ccccc3)CCCCC2)cc1 (stereo in doubt) | 16000
